The target of the test is T1, F508delCFTR (Homo sapiens, UniProt P13569, DEL508-508).
T1 construct: expressed in transfected cells; host or cells: CFBE41o- human lung-derived epithelial cells (CFBE4lo-F508delCFTR-HRP), doxycycline-inducible
Description: Cell Surface Expression-Horse Radish Peroxidase (CSE-HRP) Assay.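 On Maximum % activity (with co-corrector): co-corrector and positive control are both the same reference corrector at 2 µM.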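 On Maximum % activity (without co-corrector): percent of the 2 µM on-plate positive control corrector response above DMSO.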 Type of test: cell-based. The following applies: for Emax / Maximum % activity (with co-corrector): maximum at any tested concentration, normalized to on-plate positive control; for Emax: read-out: Maximum % activity (without co-corrector).

The mark [1] stands for this setting: test compound without co-corrector.
[2] abbreviates: test compound without co-corrector, read-out: EC50 (without co-corrector).
[3] abbreviates: with co-corrector (2 μM of 3-[(2R,4R)-4-({[1-(2,2-difluoro-1,3-benzodioxol-5-yl)cyclopropyl]carbonyl}amino)-7-methoxy-3,4-dihydro-2H-chromen-2-yl]benzoic acid).
Where [4] appears, read: with co-corrector (2 μM of 3-[(2R,4R)-4-({[1-(2,2-difluoro-1,3-benzodioxol-5-yl)cyclopropyl]carbonyl}amino)-7-methoxy-3,4-dihydro-2H-chromen-2-yl]benzoic acid), read-out: EC50 (with co-corrector).

Like-named read-outs stand apart in the source and are kept apart here.

T1 sequence (P13569 with tags, fused parts or gaps DEL508-508): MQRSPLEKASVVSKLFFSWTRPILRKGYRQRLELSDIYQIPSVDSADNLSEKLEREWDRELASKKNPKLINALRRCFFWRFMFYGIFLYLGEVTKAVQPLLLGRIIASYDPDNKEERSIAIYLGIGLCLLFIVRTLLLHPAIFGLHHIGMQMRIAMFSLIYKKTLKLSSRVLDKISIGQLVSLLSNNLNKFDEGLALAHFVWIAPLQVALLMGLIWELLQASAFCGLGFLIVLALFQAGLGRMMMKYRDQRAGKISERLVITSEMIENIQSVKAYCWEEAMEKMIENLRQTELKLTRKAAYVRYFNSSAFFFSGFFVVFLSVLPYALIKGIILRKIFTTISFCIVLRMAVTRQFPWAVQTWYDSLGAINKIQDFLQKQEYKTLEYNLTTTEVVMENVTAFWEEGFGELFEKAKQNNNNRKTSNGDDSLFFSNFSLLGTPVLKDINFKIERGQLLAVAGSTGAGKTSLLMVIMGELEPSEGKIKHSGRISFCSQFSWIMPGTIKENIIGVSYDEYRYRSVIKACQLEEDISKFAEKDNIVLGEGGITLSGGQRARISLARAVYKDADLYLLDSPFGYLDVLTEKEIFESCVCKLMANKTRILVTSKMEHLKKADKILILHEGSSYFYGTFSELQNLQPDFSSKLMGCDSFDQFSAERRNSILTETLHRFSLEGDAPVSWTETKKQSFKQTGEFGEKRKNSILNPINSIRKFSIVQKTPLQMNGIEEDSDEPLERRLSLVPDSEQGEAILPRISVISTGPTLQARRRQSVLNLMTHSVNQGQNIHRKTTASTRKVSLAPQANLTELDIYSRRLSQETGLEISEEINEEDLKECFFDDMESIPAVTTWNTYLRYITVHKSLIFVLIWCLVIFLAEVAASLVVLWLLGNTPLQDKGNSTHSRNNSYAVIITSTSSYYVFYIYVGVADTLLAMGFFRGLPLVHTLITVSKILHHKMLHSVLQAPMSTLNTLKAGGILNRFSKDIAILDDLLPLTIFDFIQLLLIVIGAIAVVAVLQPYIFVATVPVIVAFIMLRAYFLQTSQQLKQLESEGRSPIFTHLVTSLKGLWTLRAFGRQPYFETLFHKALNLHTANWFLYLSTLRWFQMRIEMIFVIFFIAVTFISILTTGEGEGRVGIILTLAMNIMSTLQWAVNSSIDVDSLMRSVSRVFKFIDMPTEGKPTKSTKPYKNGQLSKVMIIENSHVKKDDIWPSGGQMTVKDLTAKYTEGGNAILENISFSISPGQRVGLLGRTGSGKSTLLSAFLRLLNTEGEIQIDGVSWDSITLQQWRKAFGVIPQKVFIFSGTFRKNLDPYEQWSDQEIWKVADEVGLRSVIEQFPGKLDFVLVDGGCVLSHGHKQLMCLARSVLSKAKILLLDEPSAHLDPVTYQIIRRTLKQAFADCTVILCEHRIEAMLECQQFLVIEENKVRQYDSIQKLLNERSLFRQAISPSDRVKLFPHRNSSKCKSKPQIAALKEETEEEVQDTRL

Usually EC50 stands for the midpoint of the concentration-response curve. For the compound `COc1ccc(C(F)(F)F)cc1CN[C@H]1[C@H](C(C)(C)C)[C@@H](C(=O)O)N(C(=O)[C@H](C)c2ccccc2)[C@H]1c1cccnc1OC` [II-541], under setting [1], the Emax lay within 100 to 200%. Further, the EC50 under setting [2] is 1 to 10 µM and the EC50 under setting [4] lay within 1 to 10 µM. In addition, the “Maximum % activity (with co-corrector)” value under setting [3] was “+++ (≥350)”.
Regarding `COc1ccc(OC(F)(F)F)cc1CN[C@H]1[C@H](C(C)(C)C)[C@@H](C(=O)O)N(C(=O)[C@H](C)c2ccccc2)[C@H]1c1cccnc1OC` [II-542], the Emax under setting [1] lay within 100 to 200%. Also, the EC50 under setting [2] was in the range of 1 to 10 µM and the EC50 under setting [4] lay within 1 to 10 µM. Also, the “Maximum % activity (with co-corrector)” value under setting [3] is “+++ (≥350)”.
On to `COc1ccc(C(C)(C)C)cc1CN[C@H]1[C@H](C(C)(C)C)[C@@H](C(=O)O)N(C(=O)[C@H]2C[C@@H]3CC[C@H]2O3)[C@H]1c1ccccc1` [II-543], for which, under setting [1], the Emax is over 200%. Further, the EC50 under setting [2] is 1 to 10 µM and the EC50 under setting [4] was 1 to 10 µM. Moreover, under setting [3], the “Maximum % activity (with co-corrector)” value is on record as “+++ (≥350)”.
Regarding `COc1ncc(C(F)(F)F)cc1CN[C@H]1[C@H](C23CC(C2)C3)[C@@H](C(=O)O)N(C(=O)OC(C)C)[C@H]1c1ccccc1F` [II-544], the Emax under setting [1] was in the range of 100 to 200%. The EC50 by setting is: under setting [2], 1 to 10 µM; under setting [4], 1 to 10 µM. Also, under setting [3], the “Maximum % activity (with co-corrector)” value is “+++ (≥350)”.
As for `COc1ncc(C(F)(F)F)cc1CN[C@H]1[C@H](C(C)(C)C)[C@@H](C(=O)O)N(C(=O)C2CCCCC2)[C@H]1c1ccccc1C(C)C` [II-545], under setting [1], the Emax is over 200%. Moreover, the EC50 is, setting by setting: under setting [2], 1 to 10 µM; under setting [4], 1 to 10 µM. Moreover, the “Maximum % activity (with co-corrector)” value under setting [3] is “+++ (≥350)”.
With `COc1ccc(C2(C)CCC2)cc1CN[C@H]1[C@H](C(C)(C)C)[C@@H](C(=O)O)N(C(=O)[C@@H]2CCCCO2)[C@H]1c1ccccc1F` [II-546], under setting [1], the Emax is over 200%. Moreover, the EC50 reads like this: under setting [2], 1 to 10 µM; under setting [4], 1 to 10 µM. For the same compound, under setting [3], the “Maximum % activity (with co-corrector)” value is recorded as “+++ (≥350)”.
`COc1ccc(-c2ccccc2)cc1CN[C@H]1[C@H](C(C)(C)C)[C@@H](C(=O)O)N(C(=O)OC(C)C)[C@H]1c1cccnc1N(C)C` [II-547]: under setting [1], the Emax was over 200%. The half-maximal effective concentration (EC50) fell in the range of 1 to 10 µM under setting [2] and 1 to 10 µM under setting [4]. In addition, the “Maximum % activity (with co-corrector)” value under setting [3] is listed as “+++ (≥350)”.
Regarding `COc1nc(C2CCC2)ccc1CN[C@H]1[C@H](C(C)(C)C)[C@@H](C(=O)O)N(C(=O)OC(C)C)[C@H]1c1cccnc1N(C)C` [II-548], under setting [1], the Emax fell in the range of 100 to 200%. Besides, the EC50 by setting is: under setting [2], 1 to 10 µM; under setting [4], 1 to 10 µM. For the same compound, the “Maximum % activity (with co-corrector)” value under setting [3] was “+++ (≥350)”.
For `COc1cc2ccccc2cc1CN[C@H]1[C@H](C(C)(C)C)[C@@H](C(=O)O)N(C(=O)OC(C)C)[C@H]1c1ccccc1` [II-550], the Emax under setting [1] was over 200%. Also, the EC50 is, setting by setting: under setting [2], 1 to 10 µM; under setting [4], 1 to 10 µM. Further, under setting [3], the “Maximum % activity (with co-corrector)” value is given as “+++ (≥350)”.
For `COc1ccc(C(F)(F)F)cc1CN[C@H]1[C@H](C(C)(C)C)[C@@H](C(=O)O)N(C(=O)OC(C)C)[C@H]1c1cccnc1N(C)C` [II-551], the Emax under setting [1] is over 200%. Moreover, the EC50 fell in the range of 1 to 10 µM under setting [2] and 1 to 10 µM under setting [4]. The “Maximum % activity (with co-corrector)” value under setting [3] is recorded as “+++ (≥350)”.
On to `COc1ccc(OC(F)(F)F)cc1CN[C@H]1[C@H](C(C)(C)C)[C@@H](C(=O)O)N(C(=O)OC(C)C)[C@H]1c1cccnc1N(C)C` [II-552], for which the Emax under setting [1] is over 200%. In addition, the EC50 was 1 to 10 µM under setting [2] and 1 to 10 µM under setting [4]. Further, the “Maximum % activity (with co-corrector)” value under setting [3] is listed as “+++ (≥350)”.
`COc1ccc(C(F)(F)F)cc1CN[C@H]1[C@H](C(C)(C)C)[C@@H](C(=O)O)N(C(=O)OC(C)C)[C@H]1c1ccccc1` [II-553]: under setting [1], the Emax is over 200%. Also, the EC50 runs as follows: under setting [2], 1 to 10 µM; under setting [4], 1 to 10 µM. For the same compound, the “Maximum % activity (with co-corrector)” value under setting [3] was “+++ (≥350)”.
In the case of `COc1cc2ccccc2cc1CN[C@@H]1[C@H](C(C)(C)C)[C@@H](C(=O)O)N(C(=O)OC(C)C)[C@H]1c1ccccc1` [II-554], the Emax under setting [1] was in the range of 100 to 200%. Also, the EC50 runs as follows: under setting [2], 1 to 10 µM; under setting [4], 1 to 10 µM. In addition, the “Maximum % activity (with co-corrector)” value under setting [3] is given as “+++ (≥350)”.
In the case of `COc1cc2c(cc1CN[C@@H]1[C@H](C(C)(C)C)[C@@H](C(=O)O)N(C(=O)OC(C)C)[C@H]1c1ccccc1)CCC2` [II-555], the Emax under setting [1] was under 100%. Moreover, the EC50 under setting [2] is 1 to 10 µM and the EC50 under setting [4] lay within 1 to 10 µM. Further, the “Maximum % activity (with co-corrector)” value under setting [3] was “++ (≥150 and <350)”.
As for `COc1ccc(C(F)(F)F)cc1CN[C@@H]1[C@H](C(C)(C)C)[C@@H](C(=O)O)N(C(=O)OC(C)C)[C@H]1c1ccccc1` [II-556], the Emax under setting [1] was under 100%. Moreover, the EC50 is, setting by setting: under setting [2], 1 to 10 µM; under setting [4], 1 to 10 µM. For the same compound, the “Maximum % activity (with co-corrector)” value under setting [3] was “++ (≥150 and <350)”.
On to `COc1nc(C(C)(C)C)ccc1CN[C@H]1[C@H](C(C)(C)C)[C@@H](C(=O)O)N(C(=O)OC(C)C)[C@H]1c1cccnc1OC(C)C` [II-557], for which, under setting [1], the Emax lay within 100 to 200%. For the same compound, the EC50 was 1 to 10 µM under setting [2] and under 1 µM under setting [4]. For the same compound, the “Maximum % activity (with co-corrector)” value under setting [3] was “+++ (≥350)”.
As for `COc1cc(C(F)(F)F)ccc1CN[C@H]1[C@H](C(C)(C)C)[C@@H](C(=O)O)N(C(=O)CC(C)C)[C@H]1c1ccccc1` [II-558], the Emax under setting [1] lay in the range of 100 to 200%. Moreover, the EC50 under setting [2] fell in the range of 1 to 10 µM and the EC50 under setting [4] is 1 to 10 µM. Moreover, the “Maximum % activity (with co-corrector)” value under setting [3] is recorded as “+++ (≥350)”.
Turning to `COc1ccc(C2(C(F)(F)F)CC2)cc1CN[C@H]1[C@H](C(C)(C)C)[C@@H](C(=O)O)N(C(=O)OC(C)C)[C@H]1c1cccnc1N(C)C` [II-559], the Emax under setting [1] was over 200%. Further, the EC50 under setting [2] was 1 to 10 µM and the EC50 under setting [4] was 1 to 10 µM. Moreover, under setting [3], the “Maximum % activity (with co-corrector)” value is “+++ (≥350)”.
For `COc1ccc(OC(F)(F)F)cc1CN[C@H]1[C@H](C(C)(C)C)[C@@H](C(=O)O)N(C(=O)OC(C)C)[C@H]1c1ccccc1C(C)C` [II-560], the Emax under setting [1] was over 200%. The EC50 under setting [2] was 1 to 10 µM and the EC50 under setting [4] was under 1 µM. Moreover, the “Maximum % activity (with co-corrector)” value under setting [3] is “+++ (≥350)”.
The matching figures for `COc1cc(C(F)(F)F)ccc1CN[C@H]1[C@H](C(C)(C)C)[C@@H](C(=O)O)N(C(=O)OC(C)C)[C@H]1c1ccccc1C(C)C` [II-561]: over 200%, 1 to 10 µM, under 1 µM and “+++ (≥350)”.
For the compound `COc1cc2ccccc2cc1CN[C@H]1[C@H](C(C)(C)C)[C@@H](C(=O)O)N(C(=O)OC(C)C)[C@H]1c1cccnc1N(C)C` [II-562], the Emax under setting [1] was 100 to 200%. The EC50 was in the range of 1 to 10 µM under setting [2] and 1 to 10 µM under setting [4]. Moreover, under setting [3], the “Maximum % activity (with co-corrector)” value is given as “+++ (≥350)”.
With `COc1cc2c(cc1CN[C@H]1[C@H](C(C)(C)C)[C@@H](C(=O)O)N(C(=O)OC(C)C)[C@H]1c1cccnc1N(C)C)CCC2` [II-563], the Emax under setting [1] was in the range of 100 to 200%. The EC50 is 1 to 10 µM under setting [2] and 1 to 10 µM under setting [4]. Also, the “Maximum % activity (with co-corrector)” value under setting [3] is reported as “+++ (≥350)”.
For `COc1ccc(C(C)(C)C)cc1CN[C@H]1[C@H](C(C)(C)C)[C@@H](C(=O)O)N(C(=O)CC(C)C)[C@H]1c1ccccc1` [II-564], under setting [1], the Emax is over 200%. In addition, the EC50 under setting [2] lay within 1 to 10 µM and the EC50 under setting [4] lay in the range of 1 to 10 µM. Besides, the “Maximum % activity (with co-corrector)” value under setting [3] is given as “+++ (≥350)”.

(Values after US20180099931A1 (AbbVie S.à.r.l., priority 2016, published 2018).)
